Columns and labels:
JEV = JEV progeny virus titer in BHK-21 supernatant (TCID50 assay); format: cell-based; conditions: BHK-21, read-out: IC50 of viral titer reduction (called TCID50 in the source)
Description: (§1) To this end, we assessed the antiviral activity of shortlisted compounds by evaluating their ability to inhibit progeny virus production. BHK-21 cells were infected with DENV2 and JEV (MOI: 0.1) in the presence of different concentrations of 3aq or 3au or with DMSO, and viral titer was determined in the supernatants harvested at 18 hpi. Compound 3aq caused the maximum reduction of viral titer showing TCID50 of 5.18 ± 0.87 and 2.29 ± 0.50 µM against DENV2 and JEV, respectively (Fig. 8B and D).
(§2) During DENV2 and JEV infection, the viral supernatant was collected and used in the TCID50 assay to determine the viral titer. Then, 3 × 10^4 BHK-21 cells per well were seeded in a 96-well cell culture microtiter plate the day before titration. The virus stock was diluted with infection media (DMEM + 2% FBS) to attain virus dilutions of 1 × 10^−2 to 6.4 × 10^−7 in 12 parallels, with the last column of the 96-well plate serving as virus-free cell control. On the day of the assay, when the cell had reached 90%–95% confluency, the growth medium was aspirated using a multichannel pipette, and 100 µL of virus inoculum of different dilutions was transferred to each well, keeping the last well only in infection media without virus. The cells were then incubated at 37 °C in a humidified 5% CO2 chamber. […] TCID50 was calculated using the Spearman and Karber methods.

DENV2 NS2B–NS3 protease = biological target: T1, DENV2 NS2B–NS3 protease (Dengue virus type 2, UniProt P14340); assay: NS2B–NS3 protease steady-state kinetics and mode of inhibition; format: biochemical; conditions: for mode of inhibition: both Km and Vmax reduced, Lineweaver–Burk plot; for Vmax: increasing substrate concentrations
T1 construct: Activity of recombinant dengue 2 virus NS3 protease in the presence of a truncated NS2B co-factor; The N-terminal domain of NS3 contains a highly conserved protease-active core; made in house; host or cells: Escherichia coli BL21(DE3)
Description: As 3au and 3aq compounds emerged as the two most promising candidates, we characterized their NS2B–NS3 inhibitory activity in greater detail using the previously mentioned DENV NS2B–NS3 protease assay (Fig. 3D) ([39], [41]). Experiments were performed to determine the kinetic parameters, inhibition constants, and inhibition mechanisms of these compounds. Enzymatic activity and corresponding reaction velocity were measured with various substrate concentrations either in presence of the vehicle control or two different concentrations of compounds. Several inhibitory mechanisms, including competitive, uncompetitive, and mixed/non-competitive mechanisms, were explored for each compound. […] The double reciprocal plot (Lineweaver–Burk plot) ( Fig. 5C and D) also validates the mode of enzymatic inhibition against DENV NS2B–NS3 protease.
The selected compounds were analyzed using in vitro protease assays performed in black 96-well plates. Standard reaction mixtures (60 µL) containing 50 mM Tris·HCl (pH 8.5), 1 mM CHAPS, 20% glycerol, 10 nM DENV2 NS2B–NS3 protease, 10 µM inhibitor (dissolved in DMSO) or DMSO, and 10.0 µM tetra-peptide substrate trifluoroacetate-Nle-Lys-Arg-Arg-AMC (ALFA Chemicals) were added to the reaction mixture and incubated for 1 h at room temperature. All assays were performed in triplicate. The release of free AMC was measured using a Varioskan LUX multimode microplate reader (Thermo Fisher Scientific) at excitation and emission wavelengths of 380 and 460 nm, respectively. Control fluorescence values obtained in the absence of inhibitors were considered 100%, and those obtained in the presence of inhibitors were calculated as the percentage of inhibition of the control using Microsoft Excel and plotted using Origin Pro 2023b. The background AMC in the absence of protease was subtracted before data analysis. Further, protease assay was done using different concentration of the compounds (1, 10, and 100 µM) to evaluate the IC50 for the in vitro assay. IC50 curves were fitted and determined by fitting the nonlinear equation in Origin2023b software. A similar approach was used to analyze the enzymatic kinetics of protease inhibition. The reaction progress was monitored by the release of free aminomethylcoumarin (AMC), as previously described. The substrate was incubated with or without the inhibitor in the aforementioned reaction buffer in the presence of varying concentrations of the substrate. The reactions were initiated by the addition of the NS2B–NS3 protease. Protease activity was monitored for 1 h based on the initial rate of increase in fluorescence intensity at 460 nm, with an excitation wavelength of 380 nm. The results were analyzed using Origin Pro 2023b and the Michaelis–Menten equation to obtain the apparent Michaelis–Menten constants and maximal velocities. All assays were performed in triplicate. For each tested compound, […] different concentrations of the inhibitor (0, 10, and 25 µM) were used at various concentrations (0–250 μM) of the substrate. The mechanism of inhibition was determined by observing the deviations in the apparent Km and Vmax values.

[1] = MTT cytotoxicity assay in SH-SY5Y cells; format: cell-based; conditions: human
Description: We further studied the effect of the compounds on JEV replication in the human neuroblastoma SH-SY5Y cells, which represents a suitable model cell line for a neuropathic virus, like JEV. At first, the cytotoxicity was studied for both compounds in SH-SY5Y cells. […] Then, the SH-SY5Y cells were infected with the JEV virus in the absence or presence of 3aq or 3au (10 µM), and viral genomic RNA copies were quantified using qRT-PCR at 24, 48, and 72 hpi, as described previously.
The MTT assay was performed to determine cellular metabolic activity as an indicator of cell viability, proliferation, and cytotoxicity. Thus, to determine whether these compounds had any toxic effects on cellular viability, an MTT assay was performed following the protocol described previously by Mosmann (1983) ([55], [56]). Briefly, BHK-21 and SH-SHY5Y cells were seeded into 96-well plates at a density of 20,000 cells/well. Almost 16–18 h later, the cells were treated with different concentrations of the compounds (3au and 3aq) for 24 h at 37 °C in 5% CO2. […] The absorbance of the solution in a 96-well plate was measured at 595 nm using a microplate reader (Epoch 2; BioTek Instruments). Each experiment was performed in triplicate, and the percentage of cell viability was determined as the ratio of the absorbance values of the experimental samples to the control solvent (DMSO) on the same plate.

DENV2 = DENV2 progeny virus titer in BHK-21 supernatant (TCID50 assay); format: cell-based; conditions: Dengue virus, DENV2, BHK-21, read-out: IC50 of viral titer reduction (called TCID50 in the source)
Description: as §1, §2

T1 sequence (P14340 1476-1653): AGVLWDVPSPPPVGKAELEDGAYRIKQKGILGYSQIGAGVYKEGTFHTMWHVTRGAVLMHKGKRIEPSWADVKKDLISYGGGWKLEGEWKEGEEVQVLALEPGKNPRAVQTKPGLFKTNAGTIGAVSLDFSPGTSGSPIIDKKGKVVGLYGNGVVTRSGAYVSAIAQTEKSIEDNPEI
T1 sequence (P14340 1398-1437): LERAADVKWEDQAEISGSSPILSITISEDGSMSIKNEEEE

| SMILES | IC50 (JEV) | mode of inhibition (DENV2 NS2B–NS3 protease) | Vmax (DENV2 NS2B–NS3 protease; inhibitor 10 μM) | Vmax (DENV2 NS2B–NS3 protease; inhibitor 25 μM) | CC50 at 24 h [1] | IC50 (DENV2) |
| --- | --- | --- | --- | --- | --- | --- |
| COc1ccc(-c2csc(N/N=C(\C)c3ccc(O)cc3)n2)cc1 [3aq] | 2.29 ± 0.5 µM | uncompetitive | 52.1 ± 3.3 | 18.4 ± 0.9 | 58.3 ± 4.31 µM | 5.18 ± 0.87 µM |
| COc1ccc(-c2csc(N/N=C(\C)c3cc(O)cc(O)c3)n2)cc1 [3au] | 2.72 ± 0.24 µM | uncompetitive | 38.9 ± 1.9 | 21.4 ± 0.7 | 49.4 ± 3.65 µM | 7.58 ± 1.02 µM |
